Data published in patent publication US10517889B2, “Modulators of SMAD7 expression” (Ionis Pharmaceuticals, Inc., priority 2017, dated 2019).
“And” between values parts separate entries of the source, which are not always exact repeats. Identical values can stand only once. Strand notation (5' to 3'): a small letter for the sugar, then the base; units joined by * are phosphorothioate-linked, units joined directly phosphodiester-linked; [ ] holds rarer units or linkages, { } end groups; capitals alone tell only the bases. e = 2'-O-(2-methoxyethyl) (MOE); k = constrained ethyl (cEt); [5mC] = 5-methylcytosine; d = 2'-deoxy (DNA)

Experiments:
Format in all cases: cell-based
[1] = tested on: human SMAD7 mRNA; assay: Antisense inhibition of human SMAD7 mRNA expression in Hep3B cells by 5-10-5 MOE gapmers, single concentration, electroporation, RT-PCR (Example 1, Study 1 and 2)
Procedure: Antisense oligonucleotides were designed to target human SMAD7 mRNA and were tested for their effects on SMAD7 mRNA expression in vitro. Cultured Hep3B cells at a density of 20,000 cells per well were transfected using electroporation with antisense oligonucleotide ION 483663 (a 5-10-5 MOE gapmer), the sequence of which overlaps with ION 28453 (a 4-10-4 MOE gapmer) was included in these assays for comparison. ION 28453 has been previously disclosed in U.S. Pat. No. 6,159,697). After a treatment period of approximately 24 hours, RNA was isolated from the cells and SMAD7 mRNA levels were measured by quantitative real-time PCR. Primer probe set RTS5062 (forward sequence […], designated herein as SEQ ID NO: 11; reverse sequence […], designated herein as SEQ ID NO: 12; probe sequence […], designated herein as SEQ ID NO: 13) was used to measure human SMAD7 mRNA levels. SMAD7 mRNA levels were adjusted according to total RNA content, as measured by RIBOGREEN®. Results are presented as percent inhibition of SMAD7 mRNA expression, relative to untreated control cells.
The newly designed chimeric antisense oligonucleotides in the Tables below were designed as 5-10-5 MOE gapmers. The gapmers are 20 nucleosides in length, wherein the central gap segment comprises of ten 2′-deoxynucleosides and is flanked by wing segments on the 5′ direction and the 3′ direction comprising five nucleosides each. Each nucleoside in the 5′ wing segment and each nucleoside in the 3′ wing segment has a 2′-MOE modification. The internucleoside linkages throughout each gapmer are phosphorothioate (P═S) linkages. All cytosine residues throughout each gapmer are 5-methylcytosines.
“Start site” indicates the 5′-most nucleoside to which the gapmer is targeted in the human gene sequence. “Stop site” indicates the 3′-most nucleoside to which the gapmer is targeted human gene sequence.
Cultured Hep3B cells at a density of 20,000 cells per well were transfected using electroporation with 5,000 nM antisense oligonucleotide.
Cultured Hep3B cells at a density of 20,000 cells per well were transfected using electroporation with 15,000 nM antisense oligonucleotide. The antisense oligonucleotides were tested in a series of experiments that had similar culture conditions as described below.
Some of the oligonucleotides presented were complementary to SMAD7 mRNA sequences RefSeqNo. NM_001190821.1 (designated herein as SEQ ID NO: 3) or RefSeqNo. NM_001190822.1 (designated herein as SEQ ID NO: 4), and are presented in a separate table shown below.

[2] = tested on: human SMAD7 mRNA; assay: Dose-dependent inhibition of human SMAD7 mRNA expression in Hep3B cells (Example 3, Study 1 and 2); settings: electroporation; for % inhibition of SMAD7 mRNA expression: approximately 16 hours; for IC50: Study 2 (740-20000 nM)
In short: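 Hep3B cells, 20,000 per well, electroporated with antisense oligonucleotide at 0.31, 1.25, 5.00 or 20.00 μM (first series) or 0.74, 2.22, 6.67 or 20.00 μM (second series). After ~16 h, SMAD7 mRNA measured by RT-qPCR (RTS5062), normalised to RIBOGREEN total RNA. Percent inhibition vs untreated cells; IC50 derived.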

[3] = tested on: human SMAD7 mRNA; assay: Antisense inhibition of human SMAD7 mRNA expression in Hep3B cells by 3-10-3 cEt gapmers, 10,000 nM, electroporation (Example 2); settings: approximately 24 hours
In short: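 qRT-PCR (RTS5062) of SMAD7 mRNA, normalised to RIBOGREEN total RNA, gave percent inhibition relative to untreated controls. Hep3B cells at 20,000 per well received 10,000 nM oligonucleotide by electroporation, with ~24 h treatment.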

[4] = Study 2, electroporation with 15,000 nM antisense oligonucleotide, 5-10-5 MOE gapmers targeting SEQ ID NO: 1 and 2
[5] = electroporation, 15,000 nM antisense oligonucleotide (Study 2), 5-10-5 MOE gapmers targeting SEQ ID NO: 1 and 2
[6] = electroporation, 5,000 nM, approximately 24 hours, relative to untreated control cells, gapmers targeting SEQ ID NO: 1 and 2
[7] = electroporation, 15,000 nM, approximately 24 hours, relative to untreated control cells, gapmers targeting SEQ ID NO: 1 and 2
[8] = 740 nM, Study 2, relative to untreated control cells
[9] = Hep3B cells, electroporation with 10,000 nM antisense oligonucleotide, RTS5062, percent inhibition of SMAD7 mRNA relative to untreated control cells
[10] = Hep3B cells, electroporation with 10,000 nM antisense oligonucleotide, primer probe set RTS5062, relative to untreated control cells
[11] = Hep3B cells, electroporation with 10,000 nM antisense oligonucleotide, SMAD7 mRNA by RT-PCR (RTS5062), relative to untreated control cells
[12] = SMAD7 mRNA, Hep3B cells, 10,000 nM antisense oligonucleotide, electroporation, primer probe set RTS5062, relative to untreated control cells

Substance | % inhibition of SMAD7 mRNA expression [2, 8] | % inhibition of SMAD7 mRNA expression ([2]; 2220 nM, Study 2) | % inhibition of SMAD7 mRNA expression ([2]; 6670.0 nM, Study 2) | % inhibition of SMAD7 mRNA expression ([2]; 20000.0 nM, Study 2) | IC50 [2] | further results
771940 (antisense eT*e[5mC]*e[5mC]*eT*eG*d[5mC]*dT*dG*d[5mC]*d[5mC]*d[5mC]*d[5mC]*dA*dG*d[5mC]*eA*eG*eG*e[5mC]*eT) [compound 771940] | – | – | – | – | – | % Inhibition [1, 4]: 0%
771954 (antisense e[5mC]*eT*eA*eG*eA*dA*dT*dG*dA*dA*dG*dA*d[5mC]*dA*d[5mC]*e[5mC]*e[5mC]*eG*e[5mC]*e[5mC]) [compound 771954] | – | – | – | – | – | % inhibition of SMAD7 mRNA expression [1, 5]: 0%
771819 (antisense eA*eA*eT*eA*eG*dT*dT*dT*dT*d[5mC]*dT*d[5mC]*dT*d[5mC]*dA*eA*eA*eT*eG*eT) [compound 771819] | – | – | – | – | – | % Inhibition [1, 4]: 20%; % inhibition of SMAD7 mRNA expression [1, 6]: 56%
771600 (antisense eT*eG*eG*e[5mC]*e[5mC]*dA*dA*dA*dA*dA*dA*dG*dA*dA*dA*eG*eA*e[5mC]*eG*e[5mC]) [compound 771600] | – | – | – | – | – | % Inhibition of SMAD7 mRNA ([1]; electroporation with 15,000 nM antisense oligonucleotide (Study 2), 5-10-5 MOE gapmers targeting SEQ ID NO: 1 and 2): 11%; % inhibition of SMAD7 mRNA expression [1, 5]: 0%
771805 (antisense eG*eA*eT*eT*eA*dT*dA*dT*dA*dG*dG*dT*dA*dT*dT*eT*eT*eT*eG*eA) [compound 771805] | – | – | – | – | – | % inhibition of SMAD7 mRNA expression [1, 7]: 0%
771938 (antisense e[5mC]*e[5mC]*eT*eT*e[5mC]*d[5mC]*d[5mC]*dA*dA*dA*dT*dG*d[5mC]*d[5mC]*dT*eG*e[5mC]*e[5mC]*e[5mC]*e[5mC]) [compound 771938] | – | – | – | – | – | % inhibition of SMAD7 mRNA expression [1, 5]: 29%
771420 (eG*e[5mC]*e[5mC]*e[5mC]*eG*dG*dG*d[5mC]*d[5mC]*dG*d[5mC]*d[5mC]*dG*d[5mC]*d[5mC]*eA*e[5mC]*e[5mC]*eG*eG; antisense) [compound 771420] | – | – | – | – | – | % Inhibition [1, 4]: 54%; % inhibition of SMAD7 mRNA expression [1, 6]: 1%
771813 (antisense eT*e[5mC]*eT*eT*eG*dT*d[5mC]*dT*dG*dG*d[5mC]*d[5mC]*dG*dG*d[5mC]*eA*eG*eA*eG*e[5mC]) [compound 771813] | – | – | – | – | – | % inhibition of SMAD7 mRNA expression [1, 7]: 38%
771415 (eT*eG*e[5mC]*eG*e[5mC]*dT*d[5mC]*dG*dG*d[5mC]*dT*dG*dT*d[5mC]*d[5mC]*eG*eT*e[5mC]*eG*e[5mC]; antisense) [compound 771415] | – | – | – | – | – | % Inhibition [1, 4]: 36%
771718 (antisense eA*eA*eA*eG*eT*dT*d[5mC]*dT*dA*dG*dT*dG*dT*d[5mC]*dT*eA*e[5mC]*eT*e[5mC]*e[5mC]) [compound 771718] | – | – | – | – | – | % Inhibition [1, 4]: 29%
771889 (antisense eT*eA*eA*eG*eA*dG*d[5mC]*dA*dT*dT*dT*dA*dT*d[5mC]*dT*e[5mC]*eG*e[5mC]*e[5mC]*eA) [compound 771889] | – | – | – | – | – | % inhibition of SMAD7 mRNA expression [1, 5]: 29%
771472 (antisense eA*eT*eT*eT*eT*dG*d[5mC]*dT*d[5mC]*d[5mC]*dG*d[5mC]*dA*d[5mC]*d[5mC]*eT*eT*e[5mC]*eT*eG) [compound 771472] | – | – | – | – | – | % inhibition of SMAD7 mRNA expression [1, 4]: 0%
771402 (antisense e[5mC]*eA*eG*eG*e[5mC]*dG*d[5mC]*dA*dG*dG*d[5mC]*dG*dA*d[5mC]*dA*eG*e[5mC]*eA*eG*e[5mC]) [compound 771402] | – | – | – | – | – | % Inhibition [1, 4]: 31%
771502 (antisense e[5mC]*eG*e[5mC]*eT*e[5mC]*dT*dG*dT*d[5mC]*d[5mC]*d[5mC]*d[5mC]*dT*d[5mC]*d[5mC]*eG*e[5mC]*eA*e[5mC]*eG) [compound 771502] | – | – | – | – | – | % inhibition of SMAD7 mRNA expression [1, 7]: 48%
771886 (antisense eA*eA*e[5mC]*e[5mC]*eA*dG*dG*dT*dT*d[5mC]*d[5mC]*d[5mC]*dA*d[5mC]*dT*eG*eT*eT*eA*e[5mC]) [compound 771886] | – | – | – | – | – | % Inhibition [1, 4]: 0%
799568 (k[5mC]*kA*kT*dT*dA*dG*dA*dA*dG*d[5mC]*dT*dT*dT*kG*kA*kG; antisense) [compound 799568] | 49% | 58% | 84% | 92% | 6 µM | % Inhibition [3, 9]: 62%
799168 (antisense kG*k[5mC]*kT*dA*dA*dG*dA*dA*d[5mC]*dA*dG*dT*dG*kT*k[5mC]*kG) [compound 799168] | 15% | 13% | 36% | 54% | 5 µM | % inhibition of SMAD7 mRNA expression [3, 10]: 75%
799396 (antisense kT*kG*kT*dT*dA*d[5mC]*dA*dA*dA*dT*dA*d[5mC]*dA*kG*kA*kG) [compound 799396] | – | 52% and 38% | 72% and 70% | 78% and 85% | – | % Inhibition [3, 11]: 69%; % Inhibition [3, 12]: 66%
799402 (antisense kG*kG*kT*d[5mC]*dA*d[5mC]*dT*dG*dT*dT*d[5mC]*dT*d[5mC]*kT*k[5mC]*kT) [compound 799402] | 0% | 3% | 13% | 50% | 10 µM | % inhibition of SMAD7 mRNA expression [3, 10]: 66%
799624 (kT*kG*kA*dA*dA*dG*dT*dA*d[5mC]*dA*dA*dT*d[5mC]*kT*k[5mC]*k[5mC]; antisense) [compound 799624] | 2% | 50% | 77% | 89% | 6 µM | % Inhibition [3, 9]: 58%
830157 (antisense kG*kA*kA*d[5mC]*dT*dG*dT*dG*d[5mC]*d[5mC]*dT*d[5mC]*dA*kG*k[5mC]*kA) [compound 830157] | 24% | 50% | 73% | 81% | 3 µM | % Inhibition [3, 11]: 70%
830138 (antisense kG*kG*kA*dG*dT*dT*dG*d[5mC]*dA*dT*dG*d[5mC]*d[5mC]*kT*kT*kT) [compound 830138] | 0% | 40% | 61% | 87% | 5 µM | % Inhibition [3, 11]: 71%
830144 (antisense kG*kG*kG*dT*dG*dT*dG*d[5mC]*dA*d[5mC]*d[5mC]*dA*dG*kG*kT*kG) [compound 830144] | 47% | 68% | 85% | 96% | 1 µM | % Inhibition [3, 11]: 66%
790736 (kT*k[5mC]*kA*dA*dA*d[5mC]*dT*dT*dT*dG*dA*dA*dG*k[5mC]*k[5mC]*kT; antisense) [compound 790736] | 32% | 56% | 68% | 74% | > 20 µM | % Inhibition [3, 12]: 60%
